Literature values in patent publication US12427126B2, “Niclosamide formulations and methods of use” (Florida State University Research Foundation, Inc., priority 2020, dated 2025).

Columns and labels:
[1] = administered orally

O=C(Nc1ccc([N+](=O)[O-])cc1Cl)c1cc(Cl)ccc1O [Niclosamide]
solubility: low solubility
systemic bioavailability [1]: low systemic bioavailability
